The values that follow come from ChEMBL document CHEMBL1148354, “Dye-labeled benzodiazepines: development of small ligands for receptor binding studies using fluorescence correlation spectroscopy” (J Med Chem, 2004).

Values joined by “and” are separate entries in the source; they are usually repeats but may differ in a detail not shown here. Equal entries are not always repeated.

Assay [1] deals with GABA-A receptor; anion channel. Put plainly: Binding affinity for GABA-A benzodiazepine receptor of rat hippocampal neurons. The class given is tissue-based, Hippocampus.
The target in assay [2] is T1, GABA-A receptor; anion channel (Rattus norvegicus) (UniProt O09028+P15431+P18506+P18508+P19969+P20236+P23574+P23576+P28471+P28473+P30191+P62813+P63079+P63138+Q91ZM7+Q9ES14). Put plainly: Percent binding to GABA-A benzodiazepine receptor of rat hippocampal neurons at 2 nM. As to conditions: Hippocampus. The format is tissue-based.
In assay [3] the target is T1, GABA-A receptor; anion channel (Rattus norvegicus). Put plainly: Non-specific binding to GABA-A benzodiazepine receptor of rat hippocampal neurons after co-incubation with 1 uM midazolam (range is 7-10%). The format is tissue-based. As to conditions: Hippocampus.
Assay [4] has the same target. Put plainly: Saturation binding for benzodiazepine receptor of rat hippocampal neurons. The format is tissue-based. As to conditions: Hippocampus.

What is called Kd is the free concentration of one partner at which half of the binding sites on the other are occupied at equilibrium, for simple one-to-one binding. A high value points to weaker binding. For the compound `CC1N=c2c(cc3c(c2S(=O)(=O)O)Oc2c(cc4c(c2S(=O)(=O)O)NC(C)C4(C)C)C=3c2ccc(C(=O)NCCN3C(=O)CN=C(c4ccccc4F)c4cc(Cl)ccc43)cc2)C1(C)C` (centres undefined), the Kd in assay [1] was 97.2 nM and 9.9 nM. In addition, the Binding in assay [2] turned out to be 90%; in assay [3], 10%. Further, in assay [4], the Concentration stood at 120 nM.
